{
  "source": "patent US12240834B2",
  "about": "“Polymorphs of [2-(1H-indol-3-yl)-1H-imidazol-4-yl] (3,4,5-trimethoxyphenyl)methanone and its salts” (VERU INC., priority 2022, dated 2025)",
  "key": {"[1]": {"assay": "Polymorph screen summary of forms (stability designation)", "type": "physicochemical", "excerpt": "Polymorphism is the ability of a chemical entity to exist in different three-dimensional arrangements in the solid state. Different polymorphic forms of a compound can have different physical properties. […] The screen was designed to prepare as many novel crystalline forms as possible and characterize these polymorphs for use in a pharmaceutical product. […] Samples generated during the study were characterized using differential scanning calorimetry (DSC), polarized light microscopy, thermogravimetric analysis (TGA), X-ray powder diffraction (XRD), Fourier transform infrared spectroscopy (FT-IR), and dynamic vapor sorption (DVS). […] These were essentially the same except for minor changes in the diffraction pattern and DSC thermograms. […] The HCl salt was characterized polymorphic as multiple polymorphic forms were made and characterized as described below. […] Based on diffraction behavior, each polymorphic form was studied to determine differentiation. The characterization of each hydrochloride polymorph form began with an X-ray powder diffraction (XRD) data comparison of each form with the other forms. This was generally followed by DSC and TGA analysis."}, "[2]": {"assay": "Hygroscopicity by dynamic vapor sorption (DVS)", "type": "physicochemical", "conditions": "for DVS behaviour: moisture adsorption-desorption", "method": "Hygroscopicity—Dynamic Vapor Sorption (DVS)\nDVS is a gravimetric technique that measures how quickly and how much of a solvent (water) is absorbed by a sample. The relative humidity or vapor concentration surrounding the sample is varied while the change in mass of the sample is measured. […] The mass values at each relative humidity step are used to generate an isotherm. Isotherms are divided in two components: sorption for increasing humidity steps and desorption for decreasing humidity steps. A plot of kinetic data is also used to show the change in mass and humidity as a function of time.\nThe samples were analyzed using a TA Q5000 automated dynamic vapor sorption analyzer. The samples were dried at higher temperature than ambient over a period of time and then cooled to 25° C. with a dry nitrogen purge over them until they no longer lost mass at 0% RH (relative humidity). The samples were then subjected to 0 to 90% RH, back to 10% RH at 25° C. in 10% RH steps."}, "[3]": {"assay": "Storage of solid forms at ambient conditions (form conversion)"}, "[4]": {"assay": "Non-competitive slurry experiments (solid form stability, XRD readout)", "type": "physicochemical", "conditions": "ambient temperature", "method": "In addition to the solvent recrystallization experiments (Example 3), non-competitive slurry (Example 4) and competitive slurry (Example 5) experiments were performed to make new solid-state forms. Non-competitive slurry experiments were performed to search for new solid-state forms. These experiments relied on solubility differences of different polymorphic forms (if the compound is polymorphic).\nThe solution is saturated with respect to the polymorphic form dissolved. […] In addition, noncompetitive slurry experiments are often useful in identifying solvents that form solvates with the compound.\nThe slurry experiments were performed by exposing excess starting material, which was in all cases in this experiment Form B, to neat single and binary solvent systems and agitating the resulting suspensions for several days at ambient temperature. The solids were vacuum filtered and analyzed by XRD to determine the resulting form. To avoid possible desolvation or physical change after isolation, the samples were not further dried before X-ray analysis."}},
  "data": [
    {"smiles": "COc1cc(C(=O)c2c[nH]c(-c3c[nH]c4ccccc34)n2)cc(OC)c1OC.Cl", "note": "[Form FH]", "values": [
      {"measurement": "Description (stability / hydrate designation of the form)", "setting": "[1]", "result": "Hydrate"}
    ]},
    {"smiles": "COc1cc(C(=O)c2c[nH]c(-c3c[nH]c4ccccc34)n2)cc(OC)c1OC.Cl", "note": "[Form A]", "values": [
      {"measurement": "total weight gain (DVS)", "setting": "[2]; at 90% RH", "result": "about 0.4%"},
      {"measurement": "DVS behaviour", "setting": "[2]", "result": "very hydrophobic and does not appear to be prone to hydrate formation"},
      {"measurement": "Description (stability / hydrate designation of the form)", "setting": "[1]", "result": "Metastable"}
    ]},
    {"smiles": "COc1cc(C(=O)c2c[nH]c(-c3c[nH]c4ccccc34)n2)cc(OC)c1OC.Cl", "note": "[Form I]", "values": [
      {"measurement": "Description (stability / hydrate designation of the form)", "setting": "[1]", "result": "Metastable"},
      {"measurement": "form conversion on storage", "setting": "[3]; after a month of storage at ambient conditions", "result": "converted to a mixture of Form CH and Form H"}
    ]},
    {"smiles": "COc1cc(C(=O)c2c[nH]c(-c3c[nH]c4ccccc34)n2)cc(OC)c1OC.Cl", "note": "[Form B]", "values": [
      {"measurement": "Final Form", "setting": "[4]; 1-Propanol/EtOAc slurry, 11 Days", "result": "Form E1"},
      {"measurement": "Final Form", "setting": "[4]; 2-Propanol/THF slurry, 11 Days", "result": "Form E1"},
      {"measurement": "Final Form", "setting": "[4]; ACN/Acetone slurry, 11 Days", "result": "Form E1"},
      {"measurement": "Final Form", "setting": "[4]; Acetone slurry, 14 Days", "result": "Form D"},
      {"measurement": "Final Form", "setting": "[4]; Acetonitrile slurry, 14 Days", "result": "Form D"},
      {"measurement": "Final Form", "setting": "[4]; Ethanol slurry, 14 Days", "result": "Solvate"},
      {"measurement": "Final Form", "setting": "[4]; Ethanol/Toluene slurry, 11 Days", "result": "Form E1"},
      {"measurement": "Final Form", "setting": "[4]; Ethanol/acetonitrile slurry, 11 Days", "result": "Form E1"},
      {"measurement": "Final Form", "setting": "[4]; Ethyl acetate slurry, 14 Days", "result": "Form B"},
      {"measurement": "Final Form", "setting": "[4]; Heptane slurry, 14 Days", "result": "Form B"},
      {"measurement": "Final Form", "setting": "[4]; MeOH/Acetone slurry, 11 Days", "result": "Low crystallinity"},
      {"measurement": "Final Form", "setting": "[4]; Methanol slurry, 14 Days", "result": "Solvate"},
      {"measurement": "Final Form", "setting": "[4]; Methanol/DCM slurry, 11 Days", "result": "Solvate"},
      {"measurement": "Final Form", "setting": "[4]; Methanol/Water slurry, 11 Days", "result": "Low crystallinity"},
      {"measurement": "Final Form", "setting": "[4]; Methylene chloride slurry, 14 Days", "result": "Form B"},
      {"measurement": "Final Form", "setting": "[4]; TFE/DCM slurry, 11 Days", "result": "Form B"},
      {"measurement": "Final Form", "setting": "[4]; TFE/EtOAc slurry, 11 Days", "result": "Low order"},
      {"measurement": "Final Form", "setting": "[4]; THF slurry, 14 Days", "result": "Form B"},
      {"measurement": "Final Form", "setting": "[4]; Toluene slurry, 14 Days", "result": "Form B"},
      {"measurement": "Final Form", "setting": "[4]; Water slurry, 14 Days", "result": "Low Crystallinity"},
      {"measurement": "Description (stability / hydrate designation of the form)", "setting": "[1]", "result": "Metastable"}
    ]},
    {"smiles": "COc1cc(C(=O)c2c[nH]c(-c3c[nH]c4ccccc34)n2)cc(OC)c1OC.Cl", "note": "[Form CH]", "values": [
      {"measurement": "water uptake (DVS)", "setting": "[2]; at high humidity, returned to starting mass upon completion of the scan", "result": "up to 0.95 wt %"},
      {"measurement": "DVS behaviour", "setting": "[2]", "result": "very low uptake of water adsorption"},
      {"measurement": "Description (stability / hydrate designation of the form)", "setting": "[1]", "result": "Monohydrate"}
    ]},
    {"smiles": "COc1cc(C(=O)c2c[nH]c(-c3c[nH]c4ccccc34)n2)cc(OC)c1OC.Cl", "note": "[Form D]", "values": [
      {"measurement": "Description (stability / hydrate designation of the form)", "setting": "[1]", "result": "Metastable"}
    ]},
    {"smiles": "COc1cc(C(=O)c2c[nH]c(-c3c[nH]c4ccccc34)n2)cc(OC)c1OC.Cl", "note": "[Form GH]", "values": [
      {"measurement": "Description (stability / hydrate designation of the form)", "setting": "[1]", "result": "Hydrate"}
    ]},
    {"smiles": "COc1cc(C(=O)c2c[nH]c(-c3c[nH]c4ccccc34)n2)cc(OC)c1OC", "note": "[free base (Form I)]", "values": [
      {"measurement": "form resulting from slurry (XRD)", "setting": "[4]; slurried in acetone, THF or toluene, several days", "result": "Form II"}
    ]},
    {"smiles": "COc1cc(C(=O)c2c[nH]c(-c3c[nH]c4ccccc34)n2)cc(OC)c1OC.Cl", "note": "[Form H]", "values": [
      {"measurement": "Description (stability / hydrate designation of the form)", "setting": "[1]", "result": "Stable Form"},
      {"measurement": "form conversion on holding at ambient conditions", "setting": "[3]; held at ambient conditions", "result": "not observed to convert to any other polymorphic form"}
    ]}
  ]
}
